Patent US20130303509A1, “NAMPT INHIBITORS” (AbbVie Inc., priority 2012, published 2013)

Key:
PC3 cells = assay: NAMPT Cell Proliferation Assay; format: cell-based; details: Homo sapiens, PC-3, 120 h, 5 days incubation, cell viability by Cell Titer Glo
Outline: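 Seeded at 500 cells/well in RPMI with 10% heat-inactivated FBS and left to attach overnight at 37° C, 5% CO2. Compounds were added as 10-fold dilutions […] for 5 days, then viability was read by CellTiter-Glo. IC50s came from sigmoidal fits of percent inhibition.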

[1] = model of T-cell mediated autoimmune disorders; cited from earlier work
[2] = collagen induced arthritis; cited from earlier work
activated T cells = details: cited from earlier work

SMILES | IC50 (PC3 cells) [nM] | also measured
COCCn1nc(CC(C)C)cc1-c1ccc(NC(=O)C2CN(c3cccnn3)C2)cc1 [Example 846, N-{4-[1-(2-methoxyethyl)-3-(2-methylpropyl)-1H-pyrazol-5-yl]phenyl}-1-(pyridazin-3-yl)azetidine-3-carboxamide] | 7.24 | 
CC1(C(=O)N2CCC(c3ccc(C(=O)NC4CN(c5cccnn5)C4)s3)CC2)CC1 [Example 848, 5-{1-[(1-methylcyclopropyl)carbonyl]piperidin-4-yl}-N-[1-(pyridazin-3-yl)azetidin-3-yl]thiophene-2-carboxamide] | 609 | 
Cc1ccc(N2CC(C(=O)Nc3ccc(C4CCN(C(=O)C(C)(C)C)CC4)cc3)C2)nn1 [Example 852, N-{4-[1-(2,2-dimethylpropanoyl)piperidin-4-yl]phenyl}-1-(6-methylpyridazin-3-yl)azetidine-3-carboxamide] | 12.4 | 
O=C(Nc1ccc(C2(F)CCN(C(=O)OCc3ccccc3)CC2)cc1)C1CN(c2ccc(Cl)nn2)C1 [Example 853, benzyl 4-[4-({[1-(6-chloropyridazin-3-yl)azetidin-3-yl]carbonyl}amino)phenyl]-4-fluoropiperidine-1-carboxylate] | > 10000 | 
CC(C)C(=O)N1CCC(c2ccc(NC(=O)C3CN(c4cccnn4)C3)c(F)c2)CC1 [Example 858, N-{2-fluoro-4-[1-(2-methylpropanoyl)piperidin-4-yl]phenyl}-1-(pyridazin-3-yl)azetidine-3-carboxamide] | 4.36 | 
O=C(Nc1ccc(C2CCN(C(=O)C3CC3)CC2)cc1F)C1CN(c2cccnn2)C1 [Example 860, N-{4-[1-(cyclopropylcarbonyl)piperidin-4-yl]-2-fluorophenyl}-1-(pyridazin-3-yl)azetidine-3-carboxamide] | 10 | 
CC1(C(=O)N2CCC(c3ccc(NC(=O)C4CN(c5cccnn5)C4)c(F)c3)CC2)CC1 [Example 861, N-(2-fluoro-4-{1-[(1-methylcyclopropyl)carbonyl]piperidin-4-yl}phenyl)-1-(pyridazin-3-yl)azetidine-3-carboxamide] | 7.58 | 
O=C(Nc1ccc(C2(F)CCN(C(=O)c3ccccc3)CC2)cc1)C1CN(c2cccnn2)C1 [Example 863, N-[4-(1-benzoyl-4-fluoropiperidin-4-yl)phenyl]-1-(pyridazin-3-yl)azetidine-3-carboxamide] | 5.67 | 
CC(C)(C)c1cc(-c2ccc(NC(=O)C3CN(c4cccnn4)C3)cc2)n(CC2CCOCC2)n1 [Example 867, N-{4-[3-tert-butyl-1-(tetrahydro-2H-pyran-4-ylmethyl)-1H-pyrazol-5-yl]phenyl}-1-(pyridazin-3-yl)azetidine-3-carboxamide] | 7.84 | 
O=C(Nc1ccc(C2CCN(C(=O)c3ccccc3)CC2)cc1F)C1CN(c2ccnnc2)C1 [Example 869, N-[4-(1-benzoylpiperidin-4-yl)-2-fluorophenyl]-1-(pyridazin-4-yl)azetidine-3-carboxamide] | 1.98 | 
CC(C)(C)C(=O)N1CCC(c2ccc(NC(=O)C3CN(c4ccnnc4)C3)c(F)c2)CC1 [Example 870, N-{4-[1-(2,2-dimethylpropanoyl)piperidin-4-yl]-2-fluorophenyl}-1-(pyridazin-4-yl)azetidine-3-carboxamide] | 3.2 | 
O=C(/C=C/c1cccnc1)NCCCCC1CCN(C(=O)c2ccccc2)CC1 [FK866] |  | manifestations of experimental autoimmune encephalomyelitis [1]: ameliorated the manifestations; efficacy in animal models of arthritis [2]: efficacious; proliferation and apoptosis of activated T cells (activated T cells): selectively block proliferation and induce apoptosis

Further lines, with some results ahead:

IC50 (PC3 cells) [nM] | SMILES | also measured
115 | CC(C)(C)C(=O)N1CCC(c2ccc(C(=O)NC3CN(c4cccnn4)C3)s2)CC1 [Example 847, 5-[1-(2,2-dimethylpropanoyl)piperidin-4-yl]-N-[1-(pyridazin-3-yl)azetidin-3-yl]thiophene-2-carboxamide] | 
685 | O=C(NC1CN(c2cccnn2)C1)c1ccc(C2CCN(C(=O)CC(F)(F)F)CC2)s1 [Example 849, N-[1-(pyridazin-3-yl)azetidin-3-yl]-5-[1-(3,3,3-trifluoropropanoyl)piperidin-4-yl]thiophene-2-carboxamide] | 
70.5 | CCC(C)(C)C(=O)N1CCC(c2ccc(C(=O)NC3CN(c4cccnn4)C3)s2)CC1 [Example 850, 5-[1-(2,2-dimethylbutanoyl)piperidin-4-yl]-N-[1-(pyridazin-3-yl)azetidin-3-yl]thiophene-2-carboxamide] | 
2.75 | Cc1ccc(N2CC(C(=O)Nc3ccc(C4CCN(C(=O)c5ccccc5F)CC4)cc3)C2)nn1 [Example 851, N-{4-[1-(2-fluorobenzoyl)piperidin-4-yl]phenyl}-1-(6-methylpyridazin-3-yl)azetidine-3-carboxamide] | 
> 10000 | O=C(Nc1ccc(C2(O)CCN(C(=O)OCc3ccccc3)CC2)cc1)C1CN(c2ccc(Cl)nn2)C1 [Example 854, benzyl 4-[4-({[1-(6-chloropyridazin-3-yl)azetidin-3-yl]carbonyl}amino)phenyl]-4-hydroxypiperidine-1-carboxylate] | 
747 | O=C(NC1CN(c2cccnn2)C1)c1ccc(C2CCN(C(=O)CCC(F)(F)F)CC2)s1 [Example 855, N-[1-(pyridazin-3-yl)azetidin-3-yl]-5-[1-(4,4,4-trifluorobutanoyl)piperidin-4-yl]thiophene-2-carboxamide] | 
729 | O=C(NC1CN(c2cccnn2)C1)c1ccc(C2CCN(C(=O)C3CC3)CC2)s1 [Example 856, 5-[1-(cyclopropylcarbonyl)piperidin-4-yl]-N-[1-(pyridazin-3-yl)azetidin-3-yl]thiophene-2-carboxamide] | 
2.52 | O=C(Nc1ccc(C2(F)CCN(C(=O)c3ccccc3F)CC2)cc1)C1CN(c2cccnn2)C1 [Example 857, N-{4-[4-fluoro-1-(2-fluorobenzoyl)piperidin-4-yl]phenyl}-1-(pyridazin-3-yl)azetidine-3-carboxamide] | 
2.7 | CC(C)(C)C(=O)N1CCC(c2ccc(NC(=O)C3CN(c4cccnn4)C3)c(F)c2)CC1 [Example 859, N-{4-[1-(2,2-dimethylpropanoyl)piperidin-4-yl]-2-fluorophenyl}-1-(pyridazin-3-yl)azetidine-3-carboxamide] | 
8.49 | O=C(Nc1ccc(C2CCN(C(=O)CC3CC3)CC2)cc1F)C1CN(c2cccnn2)C1 [Example 862, N-{4-[1-(cyclopropylacetyl)piperidin-4-yl]-2-fluorophenyl}-1-(pyridazin-3-yl)azetidine-3-carboxamide] | 
5.29 | CC(C)(C)C(=O)N1CCC(F)(c2ccc(NC(=O)C3CN(c4cccnn4)C3)cc2)CC1 [Example 864, N-{4-[1-(2,2-dimethylpropanoyl)-4-fluoropiperidin-4-yl]phenyl}-1-(pyridazin-3-yl)azetidine-3-carboxamide] | 
4.06 | COCCn1nc(C(C)(C)C)cc1-c1ccc(NC(=O)C2CN(c3cccnn3)C2)cc1 [Example 865, N-{4-[3-tert-butyl-1-(2-methoxyethyl)-1H-pyrazol-5-yl]phenyl}-1-(pyridazin-3-yl)azetidine-3-carboxamide] | 
7.92 | CCCCn1nc(C(C)(C)C)cc1-c1ccc(NC(=O)C2CN(c3cccnn3)C2)cc1 [Example 866, N-[4-(1-butyl-3-tert-butyl-1H-pyrazol-5-yl)phenyl]-1-(pyridazin-3-yl)azetidine-3-carboxamide] | 
2.29 | O=C(Nc1ccc(C2CCN(C(=O)c3ccccc3F)CC2)cc1F)C1CN(c2ccnnc2)C1 [Example 868, N-{2-fluoro-4-[1-(2-fluorobenzoyl)piperidin-4-yl]phenyl}-1-(pyridazin-4-yl)azetidine-3-carboxamide] | 
3.61 | CC(C)(C)CC(=O)N1CCC(c2ccc(NC(=O)C3CN(c4ccnnc4)C3)c(F)c2)CC1 [Example 871, N-{4-[1-(3,3-dimethylbutanoyl)piperidin-4-yl]-2-fluorophenyl}-1-(pyridazin-4-yl)azetidine-3-carboxamide] | 
23.6 | O=C(Nc1ccc(C2CCN(C(=O)CCC(F)(F)F)CC2)cc1F)C1CN(c2ccnnc2)C1 [Example 872, N-{2-fluoro-4-[1-(4,4,4-trifluorobutanoyl)piperidin-4-yl]phenyl}-1-(pyridazin-4-yl)azetidine-3-carboxamide] | 
